Measurements: patent publication US7160888B2, “[1,8]naphthyridin-2-ones and related compounds for the treatment of schizophrenia” (Warner Lambert Company LLC, priority 2003, dated 2007)

Each compound was assayed against D2 receptor (Homo sapiens, UniProt P14416) (assay: [3H]Thymidine uptake assay for D2 intrinsic activity). Details: Table 1; test compound 1 μM; 1 μM Quinpirole = 100% intrinsic activity.
Assay type: cell-based
Protocol: D2 intrinsic activity of title compounds of the Examples, below, was determined using the [^3H]thymidine uptake assay described below.
[^3H]Thymidine Uptake Assay for D2 Intrinsic Activity
Cells are serum deprived by washing twice with 200 μl of serum-free media. 90 μl serum-free media was added to each well. The plates ware incubated for two to three hours. 10 μl of serum-containing media, as a positive control, vehicle (serum-free media), negative control (an antagonist) or test compounds and standards (10 μl of a 10 μM solution for a final concentration of 1 μM) in serum-free media were added to wells. The plates are returned to the incubator. Eighteen hours later [^3H]thymidine is added (0.5 μCi/well in 10 μl of serum-free media) and the plates are returned to the incubator. […] The plates are returned to the incubator, once again. One hour later the assay is terminated by rapid filtration through Whatman GF/C glass fiber filters. Filters are washed four times with 500 ml of 50 mM Tris-HCl pH 7.0 buffer, for example, using a Brandel MLR-96T cell harvester. […] Intrinsic activity is defined as total uptake (1 μM Quinpirole) minus serum-free media (no uptake). Test compounds are compared to 1 μM Quinpirole (full DA agonist), which was classified as 100% intrinsic activity.

Sequence of D2 receptor (P14416 whole entry): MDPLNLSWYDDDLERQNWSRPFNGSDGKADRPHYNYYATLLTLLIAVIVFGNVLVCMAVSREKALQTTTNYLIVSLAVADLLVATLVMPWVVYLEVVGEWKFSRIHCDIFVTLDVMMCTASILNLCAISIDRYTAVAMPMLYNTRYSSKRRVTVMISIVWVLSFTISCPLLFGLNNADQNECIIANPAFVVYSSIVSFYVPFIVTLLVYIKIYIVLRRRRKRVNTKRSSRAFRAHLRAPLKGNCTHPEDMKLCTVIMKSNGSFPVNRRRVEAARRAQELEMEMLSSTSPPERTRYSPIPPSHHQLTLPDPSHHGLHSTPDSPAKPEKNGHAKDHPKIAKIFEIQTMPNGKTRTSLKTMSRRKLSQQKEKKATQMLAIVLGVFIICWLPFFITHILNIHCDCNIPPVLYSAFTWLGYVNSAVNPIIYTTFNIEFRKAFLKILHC

Row | SMILES | Emax at 1 µM
1 | Cc1cccc(N2CCN(CCCCOc3ccc4c(n3)NC(=O)CC4)CC2)n1 [Example A44, 7-{4-[4-(6-Methyl-pyridin-2-yl)-piperazin-1-yl]-butoxy}-3,4-dihydro-1H-[1,8]naphthyridin-2-one] | 51%
2 | CCc1cccc(N2CCN(CCCCOc3ccc4c(n3)NC(=O)CC4)CC2)n1 [Example A45, 7-{4-[4-(6-Ethyl-pyridin-2-yl)-piperazin-1-yl]-butoxy}-3,4-dihydro-1H-[1,8]naphthyridin-2-one] | 34%
3 | O=C1CCc2ccc(OCCCCN3CCN(c4cccc(C5CC5)n4)CC3)nc2N1 [Example A46, 7-{4-[4-(6-Cyclopropyl-pyridin-2-yl)-piperazin-1-yl]-butoxy}-3,4-dihydro-1H-[1,8]naphthyridin-2-one] | 41%
4 | O=C1CCc2ccc(OCCCCN3CCN(c4cccc5ccccc45)CC3)nc2N1 [Example A48, 7-[4-(4-Naphthalen-1-yl-piperazin-1-yl)-butoxy]-3,4-dihydro-1H-[1,8]naphthyridin-2-one] | 34%
5 | O=C1CCc2ccc(OCCCCN3CCN(c4cc(F)cc5c4CCCC5)CC3)nc2N1 [Example A50, 7-{4-[4-(3-Fluoro-5,6,7,8-tetrahydro-naphthalen-1-yl)-piperazin-1-yl]-butoxy}-3,4-dihydro-1H-[1,8]naphthyridin-2-one] | 14%
6 | O=C1CCc2ccc(OCCCCN3CCN(c4cccc5c4C(=O)CCC5)CC3)nc2N1 [Example A51, 7-{4-[4-(8-Oxo-5,6,7,8-tetrahydro-naphthalen-1-yl)-piperazin-1-yl]-butoxy}-3,4-dihydro-1H-[1,8]naphthyridin-2-one] | 20%
7 | CC1(C)CCc2cccc(N3CCN(CCCCOc4ccc5c(n4)NC(=O)CC5)CC3)c2C1=O [Example A52, 7-{4-[4-(7,7-Dimethyl-8-oxo-5,6,7,8-tetrahydro-naphthalen-1-yl)-piperazin-1-yl]-butoxy}-3,4-dihydro-1H-[1,8]naphthyridin-2-one] | 32%
8 | O=C1CCc2cccc(N3CCN(CCCCOc4ccc5c(n4)NC(=O)CC5)CC3)c2C1 [Example A56, 7-{4-[4-(7-Oxo-5,6,7,8-tetrahydro-naphthalen-1-yl)-piperazin-1-yl]-butoxy}-3,4-dihydro-1H-[1,8]naphthyridin-2-one] | 29%
9 | O=C1CCc2ccc(OCCCCN3CCN(c4cccc5c4CCCC5(F)F)CC3)nc2N1 [Example A59, 7-{4-[4-(5,5-Difluoro-5,6,7,8-tetrahydro-naphthalen-1-yl)-piperazin-1-yl]-butoxy}-3,4-dihydro-1H-[1,8]naphthyridin-2-one] | 30%
10 | O=C1CCc2ccc(OCCCCN3CCN(c4cccc5c4CC(F)(F)C5)CC3)nc2N1 [Example A62, 7-{4-[4-(2,2-Difluoro-indan-4-yl)-piperazin-1-yl]-butoxy}-3,4-dihydro-1H-[1,8]naphthyridin-2-one] | 27%
11 | O=C1CCc2ccc(OCCCCN3CCN(c4cccc5c4CCCCC5)CC3)nc2N1 [Example A63, 7-{4-[4-(6,7,8,9-Tetrahydro-5H-benzocyclohepten-1-yl)-piperazin-1-yl]-butoxy}-3,4-dihydro-1H-[1,8]naphthyridin-2-one] | 4%
12 | O=C1CCc2ccc(OCCCCN3CCC(c4cccc5ccccc45)CC3)nc2N1 [Example A64, 7-[4-(4-Naphthalen-1-yl-piperidin-1-yl)-butoxy]-3,4-dihydro-1H-[1,8]naphthyridin-2-one] | 36%
13 | O=C1CCc2ccc(OCCCCN3CCN(c4cccc5cccc(F)c45)CC3)nc2N1 [Example A66, 7-{4-[4-(8-Fluoro-naphthalen-1-yl)-piperazin-1-yl]-butoxy}-3,4-dihydro-1H-[1,8]naphthyridin-2-one] | 49%
14 | COc1ccc2cccc(N3CCN(CCCCOc4ccc5c(n4)NC(=O)CC5)CC3)c2c1 [Example A73, 7-{4-[4-(7-Methoxy-naphthalen-1-yl)-piperazin-1-yl]-butoxy}-3,4-dihydro-1H-[1,8]naphthyridin-2-one] | 23%
15 | O=C1CCc2ccc(OCCCCN3CCN(c4cccc5ccc(Cl)cc45)CC3)nc2N1 [Example A74, 7-{4-[4-(7-Chloro-naphthalen-1-yl)-piperazin-1-yl]-butoxy}-3,4-dihydro-1H-[1,8]naphthyridin-2-one] | 37%
16 | O=C1CCc2ccc(OCCCCN3CCN(c4cccc5c(Cl)cccc45)CC3)nc2N1 [Example A75, 7-{4-[4-(5-Chloro-naphthalen-1-yl)-piperazin-1-yl]-butoxy}-3,4-dihydro-1H-[1,8]naphthyridin-2-one] | 36%
17 | O=C1CCc2ccc(OCCCCN3CCN(c4cccc5cc(Cl)ccc45)CC3)nc2N1 [Example A76, 7-{4-[4-(6-Chloro-naphthalen-1-yl)-piperazin-1-yl]-butoxy}-3,4-dihydro-1H-[1,8]naphthyridin-2-one] | 16%
18 | O=C1CCc2ccc(OCCCCN3CCN(c4cccc5cccc(Cl)c45)CC3)nc2N1 [Example A77, 7-{4-[4-(8-Chloro-naphthalen-1-yl)-piperazin-1-yl]-butoxy}-3,4-dihydro-1H-[1,8]naphthyridin-2-one] | 36%
19 | CC(=O)c1ccc2cccc(N3CCN(CCCCOc4ccc5c(n4)NC(=O)CC5)CC3)c2c1 [Example A78, 7-{4-[4-(7-Acetyl-naphthalen-1-yl)-piperazin-1-yl]-butoxy}-3,4-dihydro-1H-[1,8]naphthyridin-2-one] | 24%
20 | CC(=O)c1ccc2c(N3CCN(CCCCOc4ccc5c(n4)NC(=O)CC5)CC3)cccc2c1 [Example A79, 7-{4-[4-(6-Acetyl-napthalen-1-yl)-piperazin-1-yl]-butoxy}-3,4-dihydro-1H-[1,8]naphthyridin-2-one] | 24%
21 | CC(=O)c1cccc2c(N3CCN(CCCCOc4ccc5c(n4)NC(=O)CC5)CC3)cccc12 [Example A80, 7-{4-[4-(5-Acetyl-naphthalen-1-yl)-piperazin-1-yl]-butoxy}-3,4-dihydro-1H-[1,8]naphthyridin-2-one] | 30%
22 | CC(=O)c1ccc(N2CCN(CCCCOc3ccc4c(n3)NC(=O)CC4)CC2)c2ccccc12 [Example A81, 7-{4-[4-(4-Acetyl-naphthalen-1-yl)-piperazin-1-yl]-butoxy}-3,4-dihydro-1H-[1,8]naphthyridin-2-one] | 4%
23 | CC(=O)c1ccc2ccccc2c1N1CCN(CCCCOc2ccc3c(n2)NC(=O)CC3)CC1 [Example A82, 7-{4-[4-(2-Acetyl-naphthalen-1-yl)-piperazin-1-yl]-butoxy}-3,4-dihydro-1H-[1,8]naphthyridin-2-one] | 27%
24 | N#Cc1ccc2cccc(N3CCN(CCCCOc4ccc5c(n4)NC(=O)CC5)CC3)c2c1 [Example A83, 8-{4-[4-(7-Oxo-5,6,7,8-tetrahydro-[1,8]naphthyridin-2-yloxy)-butyl]-piperazin-1-yl}-naphthalene-2-carbonitrile] | 36%
25 | CC(=O)Nc1ccc2cccc(N3CCN(CCCCOc4ccc5c(n4)NC(=O)CC5)CC3)c2c1 [Example A84, N-(8-{4-[4-(7-Oxo-5,6,7,8-tetrahydro-[1,8]naphthyridin-2-yloxy)-butyl]-piperazin-1-yl}-naphthalen-2-yl)-acetamide] | 11%
26 | O=c1ccc2ccc(OCCCCN3CCN(c4cccc(C(F)(F)F)c4Cl)CC3)nc2[nH]1 [Example B2, 7-{4-[4-(2-Chloro-3-trifluoromethyl-phenyl)-piperazin-1-yl]-butoxy}-1H-[1,8]naphthyridin-2-one] | 22%
27 | CC(=O)c1c(Cl)cccc1N1CCN(CCCCOc2ccc3ccc(=O)[nH]c3n2)CC1 [Example B3, 7-{4-[4-(2-Acetyl-3-chloro-phenyl)-piperazin-1-yl]-butoxy}-1H-[1,8]naphthyridin-2-one] | 8%
28 | CCc1c(Cl)cccc1N1CCN(CCCCOc2ccc3ccc(=O)[nH]c3n2)CC1 [Example B4, 7-{4-[4-(3-Chloro-2-ethyl-phenyl)-piperazin-1-yl]-butoxy}-1H-[1,8]naphthyridin-2-one] | 22%

Same assay, conditions: Table 2; test compound 1 μM; 1 μM Quinpirole = 100% intrinsic activity

Row | SMILES | Emax at 1 µM
29 | COc1ccc2c(N3CCN(CCCCOc4ccc5c(n4)NC(=O)CC5)CC3)cccc2n1 [Example A43′, 7-{4-[4-(2-Methoxy-quinolin-5-yl)-piperazin-1-yl]-butoxy}-3,4-dihydro-1H-[1,8]naphthyridin-2-one] | 32%
30 | O=C1CCc2ccc(OCCCCN3CCN(c4cccc5nccnc45)CC3)nc2N1 [Example A44′, 7-[4-(4-Quinoxalin-5-yl-piperazin-1-yl)-butoxy]-3,4-dihydro-1H-[1,8]naphthyridin-2-one] | 29%
31 | O=C1CCc2ccc(OCCCCN3CCN(c4cccc5ccc(=O)[nH]c45)CC3)nc2N1 [Example A47′, 7-{4-[4-(2-Oxo-1,2-dihydro-quinolin-8-yl)-piperazin-1-yl]-butoxy}-3,4-dihydro-1H-[1,8]naphthyridin-2-one] | 32%
32 | O=C1CCc2ccc(OCCCCN3CCN(c4cccc5c4NC(=O)CC5)CC3)nc2N1 [Example A48′, 7-{4-[4-(2-Oxo-1,2,3,4-tetrahydro-quinolin-8-yl)-piperazin-1-yl]-butoxy}-3,4-dihydro-1H-[1,8]naphthyridin-2-one] | 34%
33 | CN1C(=O)CCc2cccc(N3CCN(CCCCOc4ccc5c(n4)NC(=O)CC5)CC3)c21 [Example A49′, 7-{4-[4-(1-Methyl-2-oxo-1,2,3,4-tetrahydro-quinolin-8-yl)-piperazin-1-yl]-butoxy}-3,4-dihydro-1H-[1,8]naphthyridin-2-one] | 38%
34 | O=c1ccc2ccc(OCCCCN3CCN(c4cccc5c4OCCC5)CC3)nc2[nH]1 [Example B1′, 7-[4-(4-Chroman-8-yl-piperazin-1-yl)-butoxy]-1H-[1,8]naphthyridin-2-one] | 22%
35 | CC1(C)C=Cc2cccc(N3CCN(CCCCOc4ccc5ccc(=O)[nH]c5n4)CC3)c2O1 [Example B2′, 7-{4-[4-(2,2-Dimethyl-2H-chromen-8-yl)-piperazin-1-yl]-butoxy}-1H-[1,8]naphthyridin-2-one] | 33%
36 | CC1(C)CCc2cccc(N3CCN(CCCCOc4ccc5ccc(=O)[nH]c5n4)CC3)c2O1 [Example B3′, 7-{4-[4-(2,2-Dimethyl-chroman-8-yl)-piperazin-1-yl]-butoxy}-1H-[1,8]naphthyridin-2-one] | 50%
